The test system of one data set is CMV. Briefly: In vitro antiviral assay for CMV. Type of data set: cell-based, cytomegalovirus. As to conditions: Human betaherpesvirus 5, read-out: Antiviral Activities (EC50, μM) CMV. The protocol:
The antiviral assays for HBV, (Doong et al., 1991, Proc. Natl. Acad. Sci. U.S.A. 88:8495-8499) HSV-1, (Bastow et al., 1983, Antimicrob. Agents Chemother. 23: 914-917) HSV-2, (Bastow et al., 1983, Antimicrob. Agents Chemother. 23:914-917) EBV, (Yao et al., 1993, Antimicrob. Agents Chemother. 37:1420-1425), CMV (Andreoni et al., 2002, J. Med. Virol. 67:33-40) and HIV (Mellors et al., 1992, Mol. Pharmacol. 41: 446-451) were performed according to the previously reported procedures. Anti-HCV activities were tested in Huh-Luc/neo cell line. Cells were seeded into 48-well plates and grown until confluent. Different concentrations of drugs were added into media (DMEM, 10% dFBS) and incubated for 3 days. At the end of 3-day treatment, medium were removed and 50 μl of Passive lysis buffer (Promega) were added. Cell lysate was shaken at room temperature for 15 min. 30 μl/well of cell lysate was transferred to another 96-well plate, 100 μl/well of luciferase activity assay substrate was added into plate and read by a luminometer (Amersham) immediately.

In another data set the test system is HSV-1. The data set is described as follows: In vitro antiviral assay for HSV-1. Type of data set: cell-based, Herpes Simplex Virus 1. As to conditions: Human alphaherpesvirus 1, read-out: Antiviral Activities (EC50, μM) HSV-1. The method in brief:
(§1)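 Performed according to previously reported procedures for each virus; no further conditions are given for the HSV-2, CMV, HIV or EBV assays.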

For a further data set, the system named is HIV. Briefly: In vitro antiviral assay for HIV. As to conditions: Human immunodeficiency virus 1, read-out: Antiviral Activities (EC50, μM) HIV, in vitro; (T) after a value means toxic. Type of data set: cell-based, human immunodeficiency virus. The method in brief: as §1
A short description of data set [1]: Cell cytotoxicity assay on MT-2 cells. Type of data set: cell-based. As to conditions: human, read-out: Cytotoxity (ID50, μM) MT-2. The method in brief: (§2)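 MT-2 and CEM cytotoxicity determined per previously reported procedures. HepG2 cells seeded at 10^4 cells/ml in MEME + 10% FBS, compound added on day 2 for 3 further days at 37° C. Viable layer stained with methylene blue, solubilized in 1% sarcosyl, A595 read.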

The nature of data set [2]: Cell cytotoxicity assay on CEM cells. Type of data set: cell-based. As to conditions: human, read-out: Cytotoxity (ID50, μM) CEM. The method in brief: as §2
The subject of the next data set is HCV. The data set is described as follows: Anti-HCV activity in Huh-Luc/neo cell line, luciferase activity after 3-day treatment. Type of data set: cell-based, Hepatitis C virus. The following applies: Hepatitis C virus, 72 h; at 3 μM, Huh-Luc/neo cells, 3 days; read-out: HCV percent of inhibition.
The test system of another data set is HBV core protein. Briefly: HBV core protein expression in HepG2.2.15 cells, Western blot. Type of data set: cell-based, Hepatitis B virus. As to conditions: 6 days. The protocol: Southern blot hybridization was used to measure the effects of compounds on HBV DNA. Total DNA from cells was extracted using Dneasy Tissue kit (Qiagen Inc. Valencia, Calif.) and separated on a 0.8% agarose gel. Separated DNA was transferred to a Hybond-N+membrane (Amersham Pharmacia Biotech Inc. Piscataway, N.J.). Inhibition of viral DNA replication was assessed by comparison of the replicative HBV DNA from drug-treated versus untreated cultures using hybridization of the membrane with a [α-^32P] dCTP labeled whole HBV DNA probe followed by autoradiography. Quantitative densitometry was performed on a Molecular Dynamics Densitometer (Amersham Pharmacia Biotech Inc. Piscataway, N.J.) using ImageQuaNT image analysis software. The integrated HBV genome was used as the internal control to normalize the amount of DNA loaded. Northern blot hybridization was used to measure the effects of the compounds on HBV RNA. Total intracellular RNA was extracted from cells using Rneasy kit (Qiagen Inc. Valencia, Calif.). RNA was separated in a 1.2% formaldehyde agarose gel and transferred to a Hybond-N+ membrane (Amersham Pharmacia Biotech Inc. Piscataway, N.J.). The membrane was hybridized with the same probe mentioned above at 65° C. followed by autoradiography. GAPDH RNA level was used as an internal control to normalize the amount of RNA loaded. The decrease of HBV core protein expression was assessed by western blot. A cellular crude extract of […] cells was separated on a 12% SDS-PAGE gel and transferred onto a nitrocellulose membrane (Bio-rad Laboratories, Hercules, Calif.). Anti-HBV core antibody (DAKO Corp. Carpinteria, Calif.) and anti rabbit IgG secondary antibody (Sigma. St. Louis, Mo.) were added. Actin protein level was used as the internal control.
Since 3.5 kb HBV transcript was decreased after drug treatment, it was anticipated that this class of compounds would also affect viral protein expression. HepG2.2.15 cells were treated with helioxanthin and 22 for 6 days. […]
Background: A western blot detects proteins with antibodies after separation by electrophoresis.

A further data set relates to HSV-2. The data set is described as follows: In vitro antiviral assay for HSV-2. Type of data set: cell-based, Herpes Simplex Virus 2. The following applies: Human alphaherpesvirus 2, read-out: Antiviral Activities (EC50, μM) HSV-2. An outline of the steps:
as §1

Bounds are passed on as bounds.

The values below come from patent US7754718B2 (priority 2004, dated 2010).

In the case of `O=C1OCc2c1cc1ccc3c(c1c2-c1ccc2c(c1)OCO2)OCO3` [Compound 2, 10-Benzo[1,3]dioxol-5-yl-9H-furo[3′,4′:6,7]naphtho[1,2-d][1,3]dioxol-7-one, reference compound], the EC50 in the data set on CMV was 7.3 µM; in the data set on HSV-1 it was 2 µM; in the data set with HIV, greater than 2.5 µM; in the data set with HSV-2 it was 35 µM. In addition, the IC50 in [1] was found to be 2.5 µM; in data set [2], 31 µM. The inhibition at 3 µM with HCV came out at 64%. Besides, the “effect on HBV core protein expression” value in the data set on HBV core protein (listed as helioxanthin) was “decreased in a dose-dependent manner”.

Take `Nc1ccn([C@@H]2CS[C@H](CO)O2)c(=O)n1` [Compound 3TC, (−)-(2R,5S)-1-[2-(hydroxymethyl)oxathiolan-5-yl]cytosine]: in the data set with HBV core protein, the “effect on HBV core protein expression” value was “no effect”.

With `COc1ccc(-c2c3c(cc4ccc5c(c24)OCO5)C(=O)NC3)cc1OC` [Compound 22, 10-(3,4-Dimethoxy-phenyl)-8,9-dihydro-1,3-dioxa-8-aza-dicyclopenta[a,g]naphthalen-7-one], the melting point was 258 °C (dec.). The EC50 in the data set on HSV-1 came out at 0.6 µM. Besides, the EC50 in the data set with HIV is greater than 16 µM. In addition, the IC50 in data set [1] stood at 16 µM. For the same compound, the IC50 in data set [2] was 5 µM. In addition, in the data set with HCV, the inhibition at 3 µM stood at 80%. For the same compound, the “effect on HBV core protein expression” value in the data set with HBV core protein is listed as “decreased in a dose-dependent manner”. Moreover, the EC50 with HSV-2 was found to be 0.5 µM.

Broadly, the EC50 is the concentration giving half of the maximal effect. Usually inhibition stands for the percentage by which the read-out fell short of the control. The melting point is the temperature, or range, at which the solid turns liquid.
